From the NIST ThermoML archive (doi:10.1016/j.jct.2007.05.001)
± gives the expanded uncertainty stated by the source.

Assay: refractive index (Na D-line) (dimensionless)
Conditions: 293.1 K; 101.33 kPa; Liquid; Standard Abbe refractometry

| SMILES | refractive index |
| --- | --- |
| Cc1cccc(C)c1 [1,3-dimethylbenzene] | 1.4943 ± 0.0008 |
| O=CN1CCOCC1 [N-formylmorpholine] | 1.484 ± 0.0008 |
